Assay results as given in publication PMC6651024, “LIR Motif-Containing Hyperdisulfide β-Ginkgotide is Cytoprotective, Adaptogenic, and Scaffold-Ready” (Molecules, 2019).
“Also recorded” adds a separate entry of the source. Where a SMILES comes first, the peptide text is derived from it. The star is where a group is joined. Cam = NC(=O)C*

Tests used:
SH-SY5Y cells [1] = experiment: MTT-based cell proliferation assay under normoxia, SH-SY5Y; set-up: species or system human; details: 10 µM peptide, 48 h, triplicates
Description: (§1) In addition, β-gB1 is non-toxic to Vero and BHK (baby hamster kidney) cell lines based on an MTT assay. […] LDH is a cytoplasmic enzyme which is rapidly released into the cell culture medium upon plasma membrane damage and is widely used as a marker for cytotoxicity. Thus, an LDH-release assay measures the level of plasma membrane damage to a cell population.
(§2) Rat cardio-myoblast cells (H9c2) and […] neuron-like SH-SY5Y cells were purchased from ATCC and maintained in DMEM (Dulbecco’s modified eagle medium) medium supplemented with 10% fetal bovine serum (FBS), 10,000 U/mL of penicillin, and 10,000 µg/mL of streptomycin at 37 °C, 5% CO2.
(§3) Cells were cultured in DMEM with or without β-gB1/S-alkylated β-gB1 (β-gB1Alk) for 48 h under normoxia, hypoxia, and hypoxia-reoxygenation conditions. Phosphate-buffered saline (PBS) was used as a vehicle control. After 48 h, MTT (3-(4,5-dimethylthiazol-2-yl)-2,5-diphenyltetrazolium bromide) reagent was added with a final concentration of 0.5 mg/mL, and it was incubated at 37 °C for 2 h. The culture medium was then aspirated, and purple formazan crystals were dissolved in DMSO for colorimetric quantification at 570 nm using a microplate reader with a reference wavelength of 630 nm. […]

SH-SY5Y cells [2] = experiment: LDH release cytotoxicity assay, SH-SY5Y; type: cell-based, mouse; details: 10 µM peptide, 48 h, 37 °C, LDH kit, 450 nm, triplicates
Description: as §1, §2
(§4) An LDH release assay was performed using the CytoSelect™ LDH cytotoxicity assay kit (CBA-241, Cell Biolabs, Inc., San Diego, CA, USA). In brief, cells were cultured in DMEM with or without 10 µM of β-gB1 and S-alkylated β-gB1 (β-gB1Alk) for 48 h at 37 °C and 5% CO2. PBS was used for the vehicle control experiment. The culture medium was transferred and mixed with the LDH assay reagent in a ratio of 9:1. The reaction mixture was incubated at 37 °C for 2 h, and colorimetric quantification was performed using a 450 nm wavelength. The assay was performed in experimental triplicates, and statistical calculations and bar graphs were done using GraphPad Prism software (Version 6.01). […]

pepsin = biological target: T1, pepsin (Sus scrofa, UniProt P00791); experiment: Enzymatic (proteolytic) stability against pepsin; type: in vitro ADME; details: 37 °C, MALDI-TOF MS and C18 RP-HPLC
T1 construct: purchased Sigma-Aldrich
Protocol: (§5) To assess the proteolytic stability of β-gB1, it was treated with trypsin or pepsin for 6 h. […] Similarly, the S-alkylated β-gB1 was degraded completely by pepsin within 30 min. […] This is in agreement with other plant CRPs that contain a compact structure, whose proteolytic stability was examined up to six hours treatment.
(§6) The folded β-gB1 (28 µg) was added to 100 μL of a 0.1 M ammonium bicarbonate buffer (pH 7.8) containing 800 U/mL of trypsin or 4 mg/mL of pepsin and incubated at 37 °C for 6 h. At each time-point (0, 1, 2, 4, and 6 h), 20 µL of the treated sample was aliquoted and quenched by adding 5 µL of 1 M hydrochloric acid or 0.8 μL of 1 M sodium hydroxide. The reduced β-gB1 was alkylated with iodoacetamide (S-alkylated β-gB1) and used as a control in this study. The reaction mixture was analyzed by MALDI-TOF MS and C18-reversed-phase HPLC to determine its stability.

H9c2 cells [3] = experiment: LDH release cytotoxicity assay, H9c2; type: cell-based, rat; details: H9c2, 10 µM peptide, 48 h, 37 °C; LDH kit, 450 nm; triplicates
Description: as §1, §2, §4

trypsin = experiment: Enzymatic (proteolytic) stability against trypsin; type: in vitro ADME; details: trypsin, 37 °C, five minute treatment; MALDI-TOF MS and C18 RP-HPLC
Protocol: as §5, §6

H9c2 cells [4] = experiment: MTT-based cell proliferation assay under normoxia, H9c2; set-up: species or system rat; details: H9c2, 10 µM peptide, 48 h, triplicates
Description: as §1, §2, §3

T1 sequence (P00791 60-385): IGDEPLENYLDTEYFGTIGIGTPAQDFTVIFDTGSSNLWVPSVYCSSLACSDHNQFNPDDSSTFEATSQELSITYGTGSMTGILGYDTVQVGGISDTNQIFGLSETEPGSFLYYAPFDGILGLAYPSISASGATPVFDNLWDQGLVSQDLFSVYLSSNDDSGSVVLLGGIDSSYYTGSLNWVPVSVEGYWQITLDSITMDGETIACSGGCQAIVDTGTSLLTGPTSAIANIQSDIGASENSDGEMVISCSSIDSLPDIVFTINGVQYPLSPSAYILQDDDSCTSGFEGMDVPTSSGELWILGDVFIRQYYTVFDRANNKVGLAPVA

For `CC[C@H](C)[C@H](NC(=O)[C@H](CSCC(N)=O)NC(=O)CNC(=O)[C@H](Cc1ccc(O)cc1)NC(=O)[C@H](CCC(=O)O)NC(=O)[C@H](CC(=O)O)NC(=O)[C@H](CC(C)C)NC(=O)[C@H](Cc1ccc(O)cc1)NC(=O)[C@H](CSCC(N)=O)NC(=O)[C@H](CSCC(N)=O)NC(=O)[C@H](CCCNC(=N)N)NC(=O)[C@H](CCCCN)NC(=O)[C@H](CSCC(N)=O)NC(=O)CNC(=O)[C@@H](NC(=O)[C@H](CCC(=O)O)NC(=O)[C@@H](N)Cc1ccc(O)cc1)[C@@H](C)O)C(=O)N[C@@H](CCCNC(=N)N)C(=O)N[C@@H](CSCC(N)=O)C(=O)N[C@@H](CSCC(N)=O)C(=O)O` [S-alkylated β-gB1, reference compound] (H-YETGC(Cam)KRC(Cam)C(Cam)YLDEYGC(Cam)IRC(Cam)C(Cam)-OH), the “Cell viability (growth or death) under normoxia” value (SH-SY5Y cells [1]) was “No change in cell viability; also recorded: no significant effect on the growth or death”, the “Cytotoxicity / cell-membrane damage by LDH release” value (SH-SY5Y cells [2]) was “no significant cytotoxicity or cell-membrane damaging effects” and the “Time to complete degradation by pepsin” value (pepsin) was at most 30 min. For the same compound, the “Cytotoxicity / cell-membrane damage by LDH release” value (H9c2 cells [3]) was “no significant cytotoxicity or cell-membrane damaging effects”, the “Degradation by trypsin after five minute treatment” value (trypsin) was “completely degraded” and the “Cell viability (growth or death) under normoxia” value (H9c2 cells [4]) was “No change in cell viability; also recorded: no significant effect on the growth or death”.
